Literature values, collected in patent US20090203732A1, “Thiazolones for Use as P13 Kinase Inhibitors” (priority 2006, published 2009).
Where two headings read alike, the source gives them in different places.

Assays:
CK2 protein kinase = CK2 protein kinase (Homo sapiens, UniProt P68400)
CK2 protein kinase, sequence (P68400 whole entry): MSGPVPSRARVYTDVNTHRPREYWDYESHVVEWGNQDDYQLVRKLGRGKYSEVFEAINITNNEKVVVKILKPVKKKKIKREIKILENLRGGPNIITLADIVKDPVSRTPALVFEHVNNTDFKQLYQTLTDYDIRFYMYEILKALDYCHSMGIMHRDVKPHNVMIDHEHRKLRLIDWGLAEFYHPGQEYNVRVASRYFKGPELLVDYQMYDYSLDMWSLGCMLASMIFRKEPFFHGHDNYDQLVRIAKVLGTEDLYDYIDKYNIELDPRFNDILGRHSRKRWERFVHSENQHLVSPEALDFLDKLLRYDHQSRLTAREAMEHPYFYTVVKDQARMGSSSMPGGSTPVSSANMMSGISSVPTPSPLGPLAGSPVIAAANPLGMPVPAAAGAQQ

| SMILES | IC50 (Class I PI3-kinases; each of the Class I PI3-kinases, Fruman et al. 1998, read-out: IC50 against each of these PI3-kinases) [µM] | IC50 (CK2 protein kinase) [µM] | IC50 (Class I PI3-kinases; each of the four members of Class I PI3-kinases, read-out: IC50 against each of the various Class I PI3-kinases) [µM] |
| --- | --- | --- | --- |
| O=c1cc(N2CCOCC2)oc2c(-c3ccccc3)cccc12 [LY294002] | 15 to 20 | 5 to 10 |  |
| COC[C@H]1OC(=O)c2coc3c2[C@@]1(C)C1=C(C3=O)[C@@H]2CCC(=O)[C@@]2(C)C[C@H]1OC(C)=O [wortmannin] |  |  | 0.001 to 0.01 |
